Experimental data reported in EP0968651A1, “Pesticidal method and composition” (RHONE-POULENC A[…]., priority 1998, dated 2000).

Test system: vine weevil
Test: Drench treatments of potted Fuchsia triphylla hybrid cv. Koralle infested with vine weevil eggs (curative)
Type: in vivo
Conditions: curative drench treatment; after 6 months
Procedure: In 20-replicate tests, Fuchsia triphylla hybrid cv. Koralle was infested with 15 eggs per pot of vine weevil. Compound A in the form of an 80% water dispersible granule (Regent 800 WG) was suspended in water and added to each pot at the indicated rate per surface area of the pot at various dilutions. After 6 months, the trials were assessed.

`N#Cc1nn(-c2c(Cl)cc(C(F)(F)F)cc2Cl)c(N)c1[S+]([O-])C(F)(F)F` (stereo not shown) [Compound A, 5-amino-1-(2,6-dichloro 4-trifluoromethylphenyl) 4-trifluoromethylsulfinyl-3-cyanopyrazole] was tested, and the “protection of the plants compared with fonofos” value was “protected the plants substantially better than the commercial standard fonofos”.
